According to PubChem BioAssay (NCI):
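Grown in 96-well plates, cells were treated for 48 hours with each compound at five concentrations. Insufficient inhibition: endpoint recorded as highest concentration tested. At the GI50, growth is halved. At the TGI there is no net growth.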

Legend:
Experiment in all cases: DTP human tumour cell line panel, 48 h
HOP-62 NSCLC = tested on: HOP-62 NSCLC
A498 renal = tested on: A498 renal
HCT-15 colon = tested on: HCT-15 colon
RPMI-8226 leukemia = tested on: RPMI-8226 leukemia
NCI-H23 lung = tested on: NCI-H23 lung
COLO 205 colon = tested on: COLO 205 colon
BT-549 breast = tested on: BT-549 breast
MDA-MB-231 breast = tested on: MDA-MB-231 breast
PC-3 prostate = tested on: PC-3 prostate
HOP-92 NSCLC = tested on: HOP-92 NSCLC
HS 578T breast = tested on: HS 578T breast
NCI/ADR-RES ovarian = tested on: NCI/ADR-RES ovarian

Cc1c(C(=O)Nc2ccc(Cl)c(C(F)(F)F)c2)oc2cc(O)ccc2/c1=N\NC(N)=S
TGI (HOP-62 NSCLC): > 100 µM
TGI (A498 renal): > 100 µM
TGI (HCT-15 colon): > 100 µM
TGI (RPMI-8226 leukemia): > 100 µM
TGI (NCI-H23 lung): > 100 µM
TGI (COLO 205 colon): > 100 µM

CC(C)CC(NC(=O)OCc1ccccc1)C(=O)NCCCCC(N)C(=O)NC(CCCCNC(=O)C(CC(C)C)NC(=O)OCc1ccccc1)C(=O)NC(CCCCNC(=O)C(CC(C)C)NC(=O)OCc1ccccc1)C(=O)NC(CCCCNC(=O)C(CC(C)C)NC(=O)OCc1ccccc1)C(=O)NC(CCCCNC(=O)C(CC(C)C)NC(=O)OCc1ccccc1)C(=O)NC(CCCCNC(=O)C(CC(C)C)NC(=O)OCc1ccccc1)C(=O)O (configuration not stated)
TGI (BT-549 breast): > 100 µM
TGI (HOP-62 NSCLC): > 100 µM
TGI (A498 renal): > 100 µM
TGI (HCT-15 colon): > 100 µM
TGI (MDA-MB-231 breast): > 100 µM
TGI (RPMI-8226 leukemia): > 100 µM
TGI (NCI-H23 lung): > 100 µM
TGI (PC-3 prostate): > 100 µM

Cc1nc2c(s/c(=N\N)n2-c2ccccc2)c(=O)[nH]1
TGI (HOP-62 NSCLC): > 100 µM
TGI (A498 renal): > 100 µM
TGI (HCT-15 colon): > 100 µM
TGI (RPMI-8226 leukemia): > 100 µM
TGI (NCI-H23 lung): > 100 µM
TGI (HOP-92 NSCLC): > 100 µM
TGI (COLO 205 colon): > 100 µM

CC1=C/C(=N\N(C)C)C(C(O)(C(F)(F)F)C(F)(F)F)C(C)(C)C1 (configuration not stated)
TGI (HS 578T breast): > 100 µM
TGI (HOP-62 NSCLC): > 100 µM
TGI (A498 renal): > 100 µM
TGI (HCT-15 colon): > 100 µM
TGI (MDA-MB-231 breast): > 100 µM
TGI (RPMI-8226 leukemia): > 100 µM
TGI (NCI-H23 lung): > 100 µM
TGI (PC-3 prostate): > 100 µM
TGI (HOP-92 NSCLC): 81 µM
TGI (COLO 205 colon): > 100 µM
TGI (NCI/ADR-RES ovarian): > 100 µM

CO[C@H]1C[C@@H]2CC[C@@H](C)[C@@](O)(O2)C(=O)C(=O)N2CCCC[C@H]2C(=O)O[C@H]([C@H](C)C[C@@H]2CC[C@@H](OC(=O)C(C)(CO)CO)[C@H](OC)C2)CC(=O)[C@H](C)/C=C(\C)[C@@H](O)[C@@H](OC)C(=O)[C@H](C)C[C@H](C)/C=C/C=C/C=C/1C
TGI (HS 578T breast): 17.2 µM
GI50 (HOP-62 NSCLC): < 0.0202 µM
TGI (HOP-62 NSCLC): > 100 µM
GI50 (HCT-15 colon): < 0.0222 µM
TGI (HCT-15 colon): > 100 µM
GI50 (MDA-MB-231 breast): 2.62 µM
TGI (MDA-MB-231 breast): 31.2 µM
GI50 (RPMI-8226 leukemia): < 0.0247 µM
TGI (RPMI-8226 leukemia): > 29.3 µM
GI50 (NCI-H23 lung): 1.34 µM
TGI (NCI-H23 lung): > 100 µM
GI50 (PC-3 prostate): < 0.0487 µM
TGI (PC-3 prostate): > 81.6 µM
GI50 (HOP-92 NSCLC): 1.58 µM
TGI (COLO 205 colon): > 60.4 µM
GI50 (NCI/ADR-RES ovarian): 1.01 µM
TGI (NCI/ADR-RES ovarian): 72.5 µM

COc1ccc2c(c1)CC1NC2Cc2ccccc21 (configuration not stated)
TGI (HOP-62 NSCLC): > 100 µM
TGI (A498 renal): > 100 µM
TGI (HCT-15 colon): > 100 µM
TGI (RPMI-8226 leukemia): > 100 µM
TGI (NCI-H23 lung): > 100 µM
TGI (COLO 205 colon): > 100 µM

O=C(n1[nH]c(=O)n(-c2ccc([N+](=O)[O-])cc2)c1=O)C(Cl)(Cl)Cl
TGI (BT-549 breast): > 75 µM
TGI (HS 578T breast): > 75 µM
TGI (HOP-62 NSCLC): > 75 µM
TGI (HCT-15 colon): > 75 µM
TGI (MDA-MB-231 breast): > 75 µM
TGI (RPMI-8226 leukemia): > 75 µM
TGI (NCI-H23 lung): > 75 µM
TGI (PC-3 prostate): > 75 µM
TGI (COLO 205 colon): > 75 µM
TGI (NCI/ADR-RES ovarian): > 75 µM

CCOC(=O)C1C(C(C)C)C2(C#N)C(=N)OC1(C)C2(C#N)C#N (configuration not stated)
TGI (HS 578T breast): > 100 µM
TGI (A498 renal): > 100 µM
TGI (HCT-15 colon): > 100 µM
TGI (MDA-MB-231 breast): > 100 µM
TGI (RPMI-8226 leukemia): > 100 µM
TGI (NCI-H23 lung): > 100 µM
TGI (PC-3 prostate): > 100 µM
TGI (HOP-92 NSCLC): > 100 µM
TGI (COLO 205 colon): 82.1 µM
TGI (NCI/ADR-RES ovarian): > 100 µM

CC[N+](CC)(CC)Cc1cn(S(=O)(=O)c2ccccc2)c2ccccc12
TGI (HOP-62 NSCLC): > 100 µM
TGI (HCT-15 colon): > 100 µM
TGI (RPMI-8226 leukemia): > 100 µM
TGI (NCI-H23 lung): > 100 µM
TGI (HOP-92 NSCLC): > 100 µM
TGI (COLO 205 colon): > 100 µM

O=C1OC(c2ccccc2)(c2ccccc2)CC1CN1CCOCC1 (configuration not stated)
TGI (HOP-62 NSCLC): > 100 µM
TGI (A498 renal): > 100 µM
TGI (HCT-15 colon): 29.6 µM
TGI (NCI-H23 lung): 43.9 µM
TGI (COLO 205 colon): 18.4 µM

N#CC(c1ccc(Cl)cc1)c1cccc(Cl)n1 (configuration not stated)
TGI (HOP-62 NSCLC): > 100 µM
TGI (A498 renal): > 100 µM
TGI (RPMI-8226 leukemia): > 100 µM
TGI (NCI-H23 lung): > 100 µM
TGI (HOP-92 NSCLC): 74.8 µM
TGI (COLO 205 colon): > 100 µM
